Test results taken from patent US20210293788A1, “METHOD FOR IDENTIFYING A CHEMICAL COMPOUND OR AGENT INDUCING UBIQUITINATION OF A PROTEIN OF INTEREST” (CeMM - Forschungszentrum fur Molekulare Medizin GmbH, priority 2018, published 2021).
“Also recorded” adds a separate entry of the source. Each block holds one compound with its values, some of them ahead of it.

Key:
[1] = tested on: KBM7 cells; experiment: Dose-ranging cellular viability assays in neddylation-impaired isogenic KBM7 cells; assay type: cell-based, human; conditions: for Cytotoxic activity / sensitivity in COPS8- or CAND1-modified cells: KBM7 cells modified in COPS8 or CAND1 versus non-modified control
Protocol: KBM7 cells mutated for five core genes were isolated and the underlying CRISPR-induced mutations were truncations leading to full knockouts (CAND1) or hypomorphic alleles (UBE2M, COPS8, COPS7B, GPS1). […] The observable shift in efficacy was at least 10-fold and up to 1000-fold, thus providing excellent signal to noise ratios. In sum, neddylation-impaired (NEDD^mut) cell line can be applied to find novel, yet uncharacterized MGs.
This is further exemplified when said cells are treated with the compound CC-885 (a molecular glue that reprograms the substrate receptor cereblon/CRBN to degrade GSPT1), or the PROTAC® compound THAL-SNS-032 (known to reprogram the substrate receptor cereblon/CRBN to degrade the cyclin dependent kinase 9, CDK9) (both see appended FIG. 22).
However, not for every cullin RING ligase (CRL), modifications of the COP9 signalosome subunit 8 (COPS8) or CAND1 (Cullin-associated NEDD8-dissociated protein 1; a substrate receptor exchange factor) lead to an ensuing destabilization via auto-degradation. An example for this is the substrate receptor VHL(von-Hippel-Lindau), which is part of the CRL2^VHL ligase complex. […] Therefore, measuring differential sensitivity of cells manipulated to contain altered neddylation states to a molecular glue/PROTAC® compound is a feasible surrogate to measure whether the substrate receptor that is reprogrammed by said molecular glue/PROTAC® undergoes destabilization/auto-degradation upon altering the neddylation states.

[2] = molecular target: T1, CRBN (Homo sapiens, UniProt Q96SW2); experiment: Stabilization of CRBN by CC-885 pretreatment followed by CSN5i-3 (western blot); assay type: cell-based; conditions: 125 nM CC-885 for 15 or 30 min before 100 nM CSN5i-3 for 2 hours
T1 construct: endogenous in cells; host or cells: wild-type cells (KBM7 by context)
Protocol: Cells were first pretreated with the small-molecule (CC-885) known to recruit a new substrate (GSPT1=Eukaryotic peptide chain release factor GTP-binding subunit ERF3A) to the substrate receptor CRBN of the CRL4^CRBN ligase. Pre-treatment was conducted for either 15 or 30 minutes. Afterwards, cells were treated with the CSN (COP9 signalosome) inhibitor (CNS5i-3) for 2 hours. […] This was shown in FIG. 3 by comparing lane 2 of the CRBN blot (pre-treatment with DMSO/vehicle control) to lanes 4 (15 min pre-treatment) and lane 6 (30 min pre-treatment) of the same western blot. The same blot also documents that the present invention provides for means and methods how to determine the neddylation status of cullins constituting CRLs. As evident from FIG. 3, cells comprising a normal neddylation status or a steady-state neddylation status show two bands corresponding to a non-neddylated and a neddylated cullin, respectively. Average increase of neddylated to non-neddylated approximately 9 kDa. […]

[3] = molecular target: T1, CRBN; experiment: Re-stabilization of CRBN by small-molecule degraders after CSN5i-3 pretreatment (western blot); assay type: cell-based; conditions: WT cells pretreated 2 h with DMSO, 25, 100 or 500 nM CSN5i-3, then 500 nM compound
Protocol: To explore the re-stabilization of SR upon ligand treatment, WT cells were pretreated with different doses of CSN5i-3 for 2h to firstly induce SR autodegradation. As a proof of principle, the SR CRBN was used, and the autodegradation by WB was checked (FIG. 2B-D).

[4] = tested on: CRL substrate receptors (SRs) in KBM7 cells; experiment: Global expression proteomics of substrate receptors after CSN5i-3 treatment; assay type: cell-based, human; conditions: 1 μM, 8 h, versus DMSO
Protocol: In order to survey in an unbiased manner the subset of SRs undergoing autodegradation, global expression proteomics was applied to the different genetic backgrounds: WT, COPS8-mutant and CAND1-deficient KBM7 cells. In addition, expression proteomics following cellular treatment with CSN5i-3 was employed (1 μM, 8 h) (FIG. 1G-I).

[5] = tested on: CRBN; experiment: CRBN levels by western blot after CSN5i-3 treatment (autodegradation); assay type: cell-based, human
Text: As a first approach, the levels of cereblon (CRBN), the SR of the CRL4^CRBN E3 ligase machinery, were checked by western blot (WB) in the mutant backgrounds. A strong decrease in CRBN levels in the COPS8 (COP9 signalosome complex subunit 8)-mutant cells was observed, and a less prominent downregulation in the CAND1-deficient cells (FIG. 1B). […] The CSN-impaired condition was used as a focus as this condition was sought to chemically mimic the genetic mutants. […] CRBN destabilization following CSN5i-3 treatment were rescued in CUL4A-deficient cells (FIG. 1E) or in cells lacking UBE2G1 (ubiquitin-conjugating enzyme E2 G1), a E2 ubiquitin-conjugating enzyme previously related to target degradation via the CRL4^CRBN ligase (FIG. 1F).

[6] = molecular target: T2, DCAF15 (Homo sapiens, UniProt Q66K64); experiment: DCAF15 HiBit/LgBit luciferase assay (knock-in or ectopic, live-cell or lytic detection); assay type: cell-based
T2 construct: expressed in transfected cells
Protocol: Generation of HiBit DCAF15 knock-in cells: HEK293t WT cells at 70-80% confluency were transiently transfected in a 6 well plate with a mix of 3 ug Cas9-sgRNA vector (PX458, addgene #48138, containing sgRNA [NT]), 6 ug of single stranded oligonucleotide donor (ssOND, 20 bp homology flanking the cut site) and 3.6 ug polyethylenimine (FIGS. 10 and 12). 72 hrs post-transfection cells were sorted (SH800 Cell sorter, SONY) for GFP positive cells and recovered for 24 hrs in media. Cells were subsequently seeded at a limiting dilution to generate single clones. Clones were tested after outgrowth for HiBit expression by seeding clonal cells in a black clear bottom 384 well plate and adding Nano-Glo HiBit Lytic buffer (Promega, N3030) reconstituted with recombinant LgBit and Nano-Glo HiBit Lytic Substrate in a 1:1 ratio. HiBit-expressing clones were validated by western blotting and detection of luciferase signal (Promega, N2410) at the correct size. For live cell luciferase detection (FIGS. 11 and 13) 7000 HEK293t cells with a HiBit knock-in at the N-terminus of DCAF15 and stable ectopic expression of LgBit were seeded in 10 uL per well into a black, clear-bottom 384 well plate (Corning, #3764) and incubated over night. 20 uL of media containing 1× Endurazine (Promega, N2570) was added to each well and incubated for 1 hour followed by a baseline luciferase measurement using an EnVision plate reader (Perkin Elmer). Subsequently CSN5i-3 or an equal volume of DMSO was added in 10 uL of media to a final concentration of 500 nM in the assay volume of 40 uL. Luciferase signal was measured hourly for 24 hours. For lytic HiBit detection (FIGS. 11 and 14) 10000 cells were seeded in 10 uL per well into a black clear bottom 384 well plate. After recovery cells were treated by addition of iCSN5-3 or an equal volume of DMSO in 10 uL of media to the cells. After the indicated treatment time cells were lysed by adding 20 uL Nano-Glo HiBit Lytic buffer (Promega, N3030) reconstituted with recombinant LgBit and Nano-Glo HiBit Lytic Substrate. Luciferase signal of each well was normalized to the mean DMSO luciferase signal yielding fold-change over DMSO. Luciferase signal was detected essentially as stated for FIG. 13 with the exception that indisulam (Sigma-Aldrich, SML1225) was added together with CSN5i-3 to cells in 10 uL of media to reach the indicated final concentration (FIG. 15). Luciferase signal of each well and timepoint was normalized to the mean DMSO luciferase signal yielding fold-change over DMSO. […] Luciferase signal was detected essentially as stated for FIG. 15 with the exception that indisulam and dCEMM.1 were added together with iCSN5-3 to cells in the 10 uL treatment to a final concertation of 10 uM (FIG. 17). Luciferase signal of each well and timepoint was normalized to the mean DMSO luciferase signal yielding fold-change over DMSO.

[7] = molecular target: T1, CRBN; experiment: CRBN HiBit bioluminescence assay in COPS8 knock-out cells (Example 2); assay type: cell-based; conditions: 4 hours of compound treatment
Protocol: Afterwards, CRISPR/Cas9 is used to knock-out the CSN (COP9 signalosome) subunit COPS8 (COP9 signalosome complex subunit 8). Ensuing loss of CRBN HiBit is assayed via immunoblot and loss of bioluminescence. […] After 4 hours of compound treatment, CRBNHiBit levels are assayed via bioluminescence by adding the detection reagent, which consists of a lysis buffer and recombinant LgBit protein. Within 10 minutes after addition of the detection reagent, luminescence is read with a standard plate reader, and is a proxy for drug-induced changes in CRBN levels.

T1 sequence (Q96SW2 whole entry): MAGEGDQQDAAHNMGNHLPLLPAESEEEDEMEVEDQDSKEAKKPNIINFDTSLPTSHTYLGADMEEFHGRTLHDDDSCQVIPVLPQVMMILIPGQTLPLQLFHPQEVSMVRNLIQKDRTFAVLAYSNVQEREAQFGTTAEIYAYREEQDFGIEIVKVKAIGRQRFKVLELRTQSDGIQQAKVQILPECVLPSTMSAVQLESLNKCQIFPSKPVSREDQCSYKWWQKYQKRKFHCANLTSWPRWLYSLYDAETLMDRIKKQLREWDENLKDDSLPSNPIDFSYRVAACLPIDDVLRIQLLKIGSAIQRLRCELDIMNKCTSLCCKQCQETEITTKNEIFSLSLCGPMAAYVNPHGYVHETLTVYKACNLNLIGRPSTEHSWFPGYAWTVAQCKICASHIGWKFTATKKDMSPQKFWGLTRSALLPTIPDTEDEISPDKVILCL
T2 sequence (Q66K64 whole entry): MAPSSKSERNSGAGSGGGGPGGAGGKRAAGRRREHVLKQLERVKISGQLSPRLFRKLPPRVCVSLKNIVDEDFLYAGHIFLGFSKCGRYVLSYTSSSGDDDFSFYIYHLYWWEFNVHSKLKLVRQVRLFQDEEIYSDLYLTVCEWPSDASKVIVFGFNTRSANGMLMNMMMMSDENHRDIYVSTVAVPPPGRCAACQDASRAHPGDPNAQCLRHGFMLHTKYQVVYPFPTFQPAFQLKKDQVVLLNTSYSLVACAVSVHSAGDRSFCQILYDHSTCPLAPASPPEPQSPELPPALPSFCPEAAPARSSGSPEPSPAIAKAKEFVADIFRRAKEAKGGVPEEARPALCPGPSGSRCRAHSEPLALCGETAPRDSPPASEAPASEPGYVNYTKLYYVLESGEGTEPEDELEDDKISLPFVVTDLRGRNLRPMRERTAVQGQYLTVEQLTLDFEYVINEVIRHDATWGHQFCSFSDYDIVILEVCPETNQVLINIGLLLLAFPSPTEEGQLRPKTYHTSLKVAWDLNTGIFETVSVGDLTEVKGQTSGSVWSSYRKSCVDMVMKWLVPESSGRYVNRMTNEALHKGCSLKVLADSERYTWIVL

Structure (SMILES): Cc1ncsc1-c1ccc([C@H](C)NC(=O)[C@@H]2C[C@@H](O)CN2C(=O)[C@@H](NC(=O)COCCCOCCNC(=O)C[C@@H]2N=C(c3ccc(Cl)cc3)c3c(sc(C)c3C)-n3c(C)nnc32)C(C)(C)C)cc1 [ARV-771]
Cytotoxic activity / sensitivity in COPS8- or CAND1-modified cells [1]: sensitivity to ARV-771; also recorded: do not display an altered sensitivity

Structure (SMILES): Cc1ccc(NC(=O)NCc2ccc3c(c2)CN(C2CCC(=O)NC2=O)C3=O)cc1Cl (stereo not drawn) [CC-885]
CRBN stabilization (western blot) [2]: protects from CRBN auto-degradation; also recorded: CRBN was stabilized upon CC-885 treatment in the presence of CSN5i-3 | Cytotoxic activity / sensitivity in COPS8- or CAND1-modified cells [1]: reduced activity; also recorded: lose their cytotoxic activity | CRBN stabilization (western blot) [3]: time-dependent stabilization of CRBN; also recorded: CRBN was stabilized upon CC-885 treatment in cells treated with DMSO, 25 nM, 100 nM and 500 nM CSN5i-3

DCAF15 level (luciferase signal) after CSN5i-3 ([6]; live cells, HiBit-HA knock-in at DCAF15 locus, 500 nM): DCAF15 destabilization | DCAF15 level (luciferase signal) after CSN5i-3 ([6]; lytic detection, HiBit-HA knock-in at DCAF15 locus): DCAF15 destabilization | DCAF15 level (luciferase signal) after CSN5i-3 ([6]; lytic detection, ectopic overexpression of HiBit-HA-DCAF15): DCAF15 destabilization
Structure (SMILES): CC(C)n1nc(C(F)F)cc1C(=O)Nc1ccc([C@H]2[C@@H](O)CCCc3cncn32)c(-c2ccccc2)c1 [CSN5i-3]
CRBN abundance (expression proteomics) [4]: Downregulation of CRBN | Substrate receptors destabilized (expression proteomics) [4]: only affected a subset of the SRs associated to each of the cullins | CRBN level (western blot) after CSN5i-3 ([5]; CUL4A-deficient cells (sgRNA targeting CUL4A)): Downregulation of CRBN is rescued | CRBN level (western blot) after CSN5i-3 ([5]; cells lacking UBE2G1 (sgRNA), 100 nM CSN5i-3, 0, 2, 4 and 6 hours): rescued in cells treated with two sgRNAs targeting UBE2G1 | CRBN level (western blot) ([5]; cells treated with DMSO, MLN4924 or CSN5i-3): recapitulate CRBN downregulation; also recorded: Downregulation of CRBN is recapitulated

Structure (SMILES): CC(C)(C)c1cnc(CSc2cnc(NC(=O)C3CCN(CC(=O)NCCOCCOCCOCCNc4cccc5c4C(=O)N(C4CCC(=O)NC4=O)C5=O)CC3)s2)o1 (stereo not drawn) [THAL-SNS-032]
Cytotoxic activity / sensitivity in COPS8- or CAND1-modified cells [1]: reduced activity | CRBN stabilization (western blot) ([3]; listed as SNS-THAL-032): time-dependent stabilization of CRBN; also recorded: CRBN was stabilized upon SNS-THAL-032 treatment in cells treated with DMSO, 25 nM and 100 nM CSN5i-3

Structure (SMILES): Cc1sc2c(c1C)C(c1ccc(Cl)cc1)=N[C@@H](CC(=O)NCCCCCCCCNC(=O)COc1cccc3c1C(=O)N(C1CCC(=O)NC1=O)C3=O)c1nnc(C)n1-2 (stereo partly drawn) [dBET6]
CRBN HiBit levels (bioluminescence) [7]: quick stabilization of CRBN HiBit levels | Cytotoxic activity / sensitivity in COPS8- or CAND1-modified cells [1]: reduced activity; also recorded: lose their cytotoxic activity | Resistance of mutant cells in cellular viability assay ([1]; KBM7 cells mutated in CAND1, UBE2M, COPS8, COPS7B or GPS1 versus wild type): caused resistance | CRBN stabilization (western blot) [3]: time-dependent stabilization of CRBN; also recorded: CRBN was stabilized upon dBET6 treatment in cells treated with DMSO, 25 nM and 100 nM CSN5i-3
